Data as given in patent US9169270B2, “1-phenyl-substituted heterocyclyl derivatives and their use as prostaglandin D2 receptor modulators” (Actelion Pharmaceuticals Ltd., priority 2012, dated 2015).

What follows are compounds tested against hCRTH2 receptor (Homo sapiens (Human), UniProt Q9Y5Y4) (assay: hCRTH2 receptor membranes radioligand (3H-PGD2) displacement assay). Settings: hCRTH2 membrane fragments, Binding-Buffer with 0.1% BSA.
Outline: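 Membranes from HEK293 cells expressing recombinant hCRTH2 (20 μg/well) incubated with compound and ³H-PGD2 for 90 min at room temperature in Tris buffer pH 7.0 with NaCl, EDTA, 0.1% BSA, 10 mM MnCl2. Bound radioactivity collected on PEI-treated GF/C filters and counted; non-specific binding defined with excess PGD2.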

Sequence of hCRTH2 receptor (Q9Y5Y4 whole entry, the tested form may be a part): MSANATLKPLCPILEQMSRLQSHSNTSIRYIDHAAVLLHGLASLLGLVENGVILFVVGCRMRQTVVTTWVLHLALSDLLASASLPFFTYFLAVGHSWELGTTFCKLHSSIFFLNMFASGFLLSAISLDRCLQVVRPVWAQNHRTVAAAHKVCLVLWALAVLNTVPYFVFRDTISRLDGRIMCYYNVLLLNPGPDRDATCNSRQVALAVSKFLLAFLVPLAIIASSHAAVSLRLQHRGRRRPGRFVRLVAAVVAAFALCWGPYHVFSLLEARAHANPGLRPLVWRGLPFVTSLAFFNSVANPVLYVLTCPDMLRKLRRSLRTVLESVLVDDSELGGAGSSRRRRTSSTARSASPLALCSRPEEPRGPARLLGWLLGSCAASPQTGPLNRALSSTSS

Q: Which IC50 does the source give for `C[C@@H](Oc1ccc(Cl)cc1C1c2scnc2CCN1C(=O)OCc1ccccc1)C(=O)O` (mixture of isomers) [Example 119, (±)-4-[2-((R)-1-Carboxy-ethoxy)-5-chloro-phenyl]-6,7-dihydro-4H-thiazolo[5,4-c]pyridine-5-carboxylic acid benzyl ester] here?
A: 18.5 nM

Q: For `C[C@H](Oc1ccc(Cl)cc1C1c2scnc2CCN1C(=O)OCc1ccccc1)C(=O)O` (mixture of isomers) [Example 120, (±)-4-[2-((S)-1-Carboxy-ethoxy)-5-chloro-phenyl]-6,7-dihydro-4H-thiazolo[5,4-c]pyridine-5-carboxylic acid benzyl ester], which IC50 is on record?
A: 64.4 nM

Q: With `O=C(O)COc1ccc(Cl)cc1[C@@H]1c2scnc2CCN1C(=O)[C@@H]1C[C@H]1c1cccc(F)c1` [Example 7, (4-Chloro-2-{(R)-5-[(1R,2R)-2-(3-fluoro-phenyl)-cyclopropanecarbonyl]-4,5,6,7-tetrahydro-thiazolo[5,4-c]pyridin-4-yl}-phenoxy)-acetic acid] as the compound, how does the IC50 read?
A: 2.8 nM

Q: Which IC50 does the source give for `O=C(O)COc1ccc(Cl)cc1[C@@H]1c2scnc2CCN1C(=O)[C@@H]1C[C@H]1c1ccc(F)cc1` [Example 8, (4-Chloro-2-{(R)-5-[(1R,2R)-2-(4-fluoro-phenyl)-cyclopropanecarbonyl]-4,5,6,7-tetrahydro-thiazolo[5,4-c]pyridin-4-yl}-phenoxy)-acetic acid] here?
A: 5 nM

Q: How did the IC50 turn out when `O=C(O)COc1ccc(Cl)cc1[C@@H]1c2scnc2CCN1C(=O)[C@H]1C[C@@H]1c1ccc(F)cc1` [Example 9, (4-Chloro-2-{(R)-5-[(1S,2S)-2-(4-fluoro-phenyl)-cyclopropanecarbonyl]-4,5,6,7-tetrahydro-thiazolo[5,4-c]pyridin-4-yl}-phenoxy)-acetic acid] was run?
A: 462 nM

Q: How did the IC50 turn out when `Cc1nc2c(s1)[C@@H](c1cc(Cl)ccc1OCC(=O)O)N(C(=O)[C@@H]1C[C@H]1c1ccccc1)CC2` [Example 10, {4-Chloro-2-[(R)-2-methyl-5-((1R,2R)-2-phenyl-cyclopropanecarbonyl)-4,5,6,7-tetrahydro-thiazolo[5,4-c]pyridin-4-yl]-phenoxy}-acetic acid] was run?
A: 1.5 nM

Q: With `Cc1nc2c(s1)[C@H](c1cc(Cl)ccc1OCC(=O)O)N(C(=O)[C@@H]1C[C@H]1c1ccccc1)CC2` [Example 11, {4-Chloro-2-[(S)-2-methyl-5-((1R,2R)-2-phenyl-cyclopropanecarbonyl)-4,5,6,7-tetrahydro-thiazolo[5,4-c]pyridin-4-yl]-phenoxy}-acetic acid] as the compound, how does the IC50 read?
A: 570 nM

Q: For `Cc1nc2c(s1)[C@H](c1cc(Cl)ccc1OCC(=O)O)N(C(=O)OCc1ccccc1)CC2` [Example 18, (S)-4-(2-Carboxymethoxy-5-chloro-phenyl)-2-methyl-6,7-dihydro-4H-thiazolo[5,4-c]pyridine-5-carboxylic acid benzyl ester], which IC50 is on record?
A: 655 nM

Q: `Cc1nc2c(s1)[C@@H](c1cc(Cl)ccc1OCC(=O)O)N(C(=O)OCc1ccccc1)CC2` [Example 19, (R)-4-(2-Carboxymethoxy-5-chloro-phenyl)-2-methyl-6,7-dihydro-4H-thiazolo[5,4-c]pyridine-5-carboxylic acid benzyl ester] was tested. Which IC50 did it give?
A: 4.71 nM

Q: Which IC50 does the source give for `O=C(O)COc1ccc(Cl)cc1[C@@H]1c2scnc2CCN1C(=O)OCc1cc(F)ccc1F` [Example 58, (R)-4-(2-Carboxymethoxy-5-chloro-phenyl)-6,7-dihydro-4H-thiazolo[5,4-c]pyridine-5-carboxylic acid 2,5-difluoro-benzyl ester] here?
A: 1 nM

Q: `CCC(C)(C)COC(=O)N1CCc2ncsc2[C@H]1c1cc(Cl)ccc1OCC(=O)O` [Example 60, (R)-4-(2-Carboxymethoxy-5-chloro-phenyl)-6,7-dihydro-4H-thiazolo[5,4-c]pyridine-5-carboxylic acid 2,2-dimethyl-butyl ester] was tested. Which IC50 did it give?
A: 2 nM

Q: With `O=C(O)COc1ccc(Cl)cc1[C@@H]1c2scnc2CCN1C(=O)OCc1ccc(F)cc1` [Example 61, (R)-4-(2-Carboxymethoxy-5-chloro-phenyl)-6,7-dihydro-4H-thiazolo[5,4-c]pyridine-5-carboxylic acid 4-fluoro-benzyl ester] as the compound, how does the IC50 read?
A: 1.2 nM

Q: `COC(C)(C)CCOC(=O)N1CCc2ncsc2[C@H]1c1cc(Cl)ccc1OCC(=O)O` [Example 62, (R)-4-(2-Carboxymethoxy-5-chloro-phenyl)-6,7-dihydro-4H-thiazolo[5,4-c]pyridine-5-carboxylic acid 3-methoxy-3-methyl-butyl ester] was tested. Which IC50 did it give?
A: 4.8 nM

Q: For `Cc1ccc(COC(=O)N2CCc3ncsc3[C@H]2c2cc(Cl)ccc2OCC(=O)O)c(C)c1` [Example 63, (R)-4-(2-Carboxymethoxy-5-chloro-phenyl)-6,7-dihydro-4H-thiazolo[5,4-c]pyridine-5-carboxylic acid 2,4-dimethyl-benzyl ester], which IC50 is on record?
A: 0.9 nM

Q: `O=C(O)COc1ccc(Cl)cc1[C@@H]1c2scnc2CCN1C(=O)OCc1cc(F)ccc1Cl` [Example 64, (R)-4-(2-Carboxymethoxy-5-chloro-phenyl)-6,7-dihydro-4H-thiazolo[5,4-c]pyridine-5-carboxylic acid 2-chloro-5-fluoro-benzyl ester] was tested. Which IC50 did it give?
A: 0.3 nM

Q: Which IC50 does the source give for `CC(C)(C)CCOC(=O)N1CCc2ncsc2[C@H]1c1cc(Cl)ccc1OCC(=O)O` [Example 65, (R)-4-(2-Carboxymethoxy-5-chloro-phenyl)-6,7-dihydro-4H-thiazolo[5,4-c]pyridine-5-carboxylic acid 3,3-dimethyl-butyl ester] here?
A: 1.3 nM

Q: For `CC(C)CCOC(=O)N1CCc2ncsc2[C@H]1c1cc(Cl)ccc1OCC(=O)O` [Example 67, (R)-4-(2-Carboxymethoxy-5-chloro-phenyl)-6,7-dihydro-4H-thiazolo[5,4-c]pyridine-5-carboxylic acid 3-methyl-butyl ester], which IC50 is on record?
A: 0.4 nM

Q: `O=C(O)COc1ccc(Cl)cc1[C@@H]1c2scnc2CCN1C(=O)OCC1CCC1` [Example 69, (R)-4-(2-Carboxymethoxy-5-chloro-phenyl)-6,7-dihydro-4H-thiazolo[5,4-c]pyridine-5-carboxylic acid cyclobutylmethyl ester] was tested. Which IC50 did it give?
A: 4.2 nM

Q: How did the IC50 turn out when `O=C(O)COc1ccc(Cl)cc1[C@@H]1c2scnc2CCN1C(=O)OCc1cccc(F)c1F` [Example 71, (R)-4-(2-Carboxymethoxy-5-chloro-phenyl)-6,7-dihydro-4H-thiazolo[5,4-c]pyridine-5-carboxylic acid 2,3-difluoro-benzyl ester] was run?
A: 0.5 nM

Q: For `Cc1cccc(COC(=O)N2CCc3ncsc3[C@H]2c2cc(Cl)ccc2OCC(=O)O)c1C` [Example 72, (R)-4-(2-Carboxymethoxy-5-chloro-phenyl)-6,7-dihydro-4H-thiazolo[5,4-c]pyridine-5-carboxylic acid 2,3-dimethyl-benzyl ester], which IC50 is on record?
A: 1.2 nM

Q: How did the IC50 turn out when `O=C(O)COc1ccc(Cl)cc1[C@@H]1c2scnc2CCN1C(=O)OCCCF` [Example 74, (R)-4-(2-Carboxymethoxy-5-chloro-phenyl)-6,7-dihydro-4H-thiazolo[5,4-c]pyridine-5-carboxylic acid 3-fluoro-propyl ester] was run?
A: 1.4 nM

Q: Which IC50 does the source give for `O=C(O)COc1ccc(Cl)cc1[C@@H]1c2scnc2CCN1C(=O)OCc1ccccc1F` [Example 75, (R)-4-(2-Carboxymethoxy-5-chloro-phenyl)-6,7-dihydro-4H-thiazolo[5,4-c]pyridine-5-carboxylic acid 2-fluoro-benzyl ester] here?
A: 0.6 nM
